From patent publication US6172185A, “Antimicrobial cationic peptide derivatives of bactenecin” (priority 1998, dated 2001)
Where a SMILES comes first, the peptide text is derived from it.

Key:
E. coli DC2 = assay type: cell-based, Escherichia coli; settings: E. coli DC2, 0.1M KCl
Protocol: The minimal inhibitory concentration (MIC) of peptides was determined by a modified two-fold microtitre broth dilution method modified from that of Steinberg et al (Steinberg, Antimicrob. Agents Chemother. 41:1738, 1997). Using the classical method (Amsterdam, Antibiotics in Laboratory Medicine (Lorian, V., ed) pp. 72-78, 1991), higher concentrations of peptides tend to precipitate in the LB broth, thus the concentrations of peptides in the sequential wells are not accurate. Also the peptides stick to the most readily available (tissue-culture treated polystyrene) 96-well microtitre plates. Therefore the 2× series of dilutions was performed in Eppendoff tubes (polypropylene) before mixing with LB broth. Serial of two fold dilutions of peptides ranging from 640 μg/ml to 1.25 μg/ml were made in 0.2% BSA, 0.01% acetic acid buffer in the Eppendoff tubes. Ten μl of each concentration was added to each corresponding well of a 96-well microtiter plate (polypropylene cluster; Costar Corporation, Cambridge, Mass.). Bacteria were grown overnight and diluted 10-5 into fresh LB broth or Todd Hewitt broth for Streptococcus. LB medium contained 10 g/1l tryptone and 5 g/yeast extract, with no salt. Todd Hewitt contained 500 g/l beef heart infusion, 20 g/l bacto neopeptone, 2 g/l bacto dextrose, 2 g/l sodium chloride, 0.4 g/l disodium phosphate, 2.5 g/l sodium carbonate. One hundred […] containing about 10^4-10^5 CFU/ml of tested bacteria was added to each well. […]
It has been proposed that the antibacterial target of cationic peptides be at the cytoplasmic membrane. […] Once inside the cells, diS-C3-(5) becomes concentrated and self-quenches its own fluorescence. If peptides form channels or otherwise disrupt the membrane, the membrane potential will be dissipated, and the DiS-C3-(5) will be released into the medium causing the fluorescence to increase, as can be detected by fluorescent spectrometry. […] Therefore the MICs of bactenecin, reduced bactenecin and bac2S in the presence of 0.1M KCl were determined and shown to be 8-16 μg/ml (i.e. 4 to 8 fold higher than in low salt). […]

[1] = tested on: rat embryonic neurons, fetal rat astrocytes and human glioblastoma cells; settings: cited from earlier work
E. coli UB1005 = test: Outer membrane permeabilization, NPN uptake assay; assay type: cell-based, Escherichia coli; settings: FIG. 3
Protocol: Mid-log phase E. coli cells were collected and incubated with NPN in the presence of various concentrations of bactenecin (oxidized), bac2S, bactenecin (reduced). NPN was taken up into cells when the outer membrane was disrupted by the peptides. The uptake of NPN was measured by the increase of fluorescence. Polymyxin B: -.quadrature.-; Bactenecin: -+-; Bac2S: -o-; Bactenecin (Reduced): -.gradient.-
The ability of peptides to permeabilize the outer membrane was determined by the NPN assay of Loh et al. (Loh et al., Antimicrob. Agents Chemother. 19:777, 1984). Cytoplasmic membrane permeabilization was determined by using the membrane potential sensitive cyanine dye DiS-C3-(5) (Sims et al., Biochemistry 13:3315, 1974). […] The cell suspension was incubated with […] DiS-C3-(5) until DiS-C3-(5) uptake was maximal (as indicated by a stable reduction in fluorescence due to fluorescence quenching as the dye became concentrated in the cell by the membrane potential), and 100 mM KCl was added to equilibrate the cytoplasmic and external K+ concentration. […] The fluorescence reading was monitored by using a Perkin-Elmer model 650-10 S fluorescence spectrophotometer (Perkin-Elmer Corp. Norwalk, Conn.), with an excitation wavelength of 622 nm and an emission wavelength of 670 nm. […]

CC[C@H](C)[C@@H]1NC(=O)[C@H](CCCNC(=N)N)NC(=O)[C@@H](NC(=O)[C@H](CC(C)C)NC(=O)[C@@H](N)CCCNC(=N)N)CSSC[C@@H](C(=O)N[C@@H](CCCNC(=N)N)C(=O)O)NC(=O)[C@H](C(C)C)NC(=O)[C@H](CCCNC(=N)N)NC(=O)[C@H]([C@@H](C)CC)NC(=O)[C@H](C(C)C)NC(=O)[C@H](C(C)C)NC1=O [Bactenecin, RLCRIVVIRVCR] (HELM PEPTIDE1{R.L.C.R.I.V.V.I.R.V.C.R}$PEPTIDE1,PEPTIDE1,3:R3-11:R3$$$V2.0)
MIC in the presence of 0.1M KCl (E. coli DC2): 8 to 16 µg/mL | Minimal Agglutinating Concentration, Oxidized Form (Human Red Blood Cells): 64 µg/mL | cytotoxicity [1]: strongly cytotoxic

Polymyxin B
concentration permeabilizing the outer membrane to 50% of maximal increase in fluorescence (NPN) (E. coli UB1005): 0.4 mg/mL
